Assay type in all cases: in vivo
Experiment [1] concerns mice. The experiment is described as follows: 2-phenyl-1,4-benzoquinone-induced writhing (PQW) test in mice (analgesic activity). The conditions noted are these: for PQW: s.c. The text has this:
Compounds I of the present invention are useful as analgesic agents due to their ability to alleviate pain in mammals. […] Exptl. Biol. Med., 95, 729 (1957)].
(In writhing tests, fewer writhes than in controls are read as antinociception.)

Experiment [2] relates to CK-1 male mice. The experiment is described as follows: climbing mice assay (apomorphine-induced climbing, antipsychotic activity). The conditions noted are these: Mus musculus, apomorphine 1.5 mg/kg s.c. How it is done: Antipsychotic activity is determined in the climbing mice assay by methods similar to those described by P. Protais, et al., Psychopharmacol., 50, 1 (1976) and B. Costall, Eur. J. Pharmacol., 50, 39, (1978).
The subject CK-1 male mice (23-27 grams) are group-housed under standard laboratory conditions. The mice are individually placed in wire mesh stick cages (4"×4" by 10") and are allowed one hour for adaptation and exploration of the new environment. Then apomorphine is injected subcutaneously at 1.5 mg/kg, a dose causing climbing in all subjects for 30 minutes. Compounds to be tested for antipsychotic activity are injected intraperitoneally 30 minutes prior to the apomorphine challenge at a screening dose of 10 mg/kg.
For evaluation of climbing, 3 readings are taken at 10, 20 and 30 minutes after apomorphine administration according to the following scale:
4 paws on bottom (no climbing)
2 paws on the wall (rearing)
4 paws on the wall (full climb)
Mice consistently climbing before the injection of apomorphine are discarded.
With full-developed apomorphine climbing, the animals are hanging onto the cage walls, rather motionless, over long periods of time. By constrast, climbs due to mere motor stimulation usually last only a few seconds.
The climbing scores are individually totaled (maximum score: 6 per mouse over 3 readings) and the total score of the control group (vehicle intraperitoneally; apomorphine subcutaneously) is set to 100%. ED50 values with 95% confidence limits, calculated by a linear regression analysis, of some of the compounds of this invention are presented in Table 2.
Results of the climbing mice assay for some of the compounds of this invention along with a result for a reference compounds are presented in Table 2.

Experiment [3] relates to male mice. Put plainly: supramaximal electroshock (SES) assay in the mouse (anticonvulsant activity). As to the method: Compounds I of the present invention are also useful as anticonvulsant agents due to their anticonvulsant activity in mammals. Anticonvulsant activity is measured in the mouse using the supramaximal electroshock (SES) assay described in Arch. Int. Pharmacodyn. 92: 97-107, 1952. In this procedure groups of male mice, 18-30 grams, are used. Drugs are prepared using distilled water and, if insoluble, a surfactant is added. Control animals receive vehicle. Drugs are routinely administered intraperitoneally (i.p.). The dosage volume is 10 ml/kg. A primary screen is given a 30 minute pretreat. The animal's eyes are placed across the output terminals of an A.C. shocker that delivers 206 volts rms for 300 msec. Electrode paste coats the animal's eyes at the point of contact with the terminals. […] Protection is expressed as normalized percent inhibition relative to vehicle control.
A time response is carried out using six animals/group. Animals are tested at 30, 60 and 120 minutes postdrug. Additional time periods are tested if indicated by previous tests. When the peak activity time has been determined, a dose response is initiated using 10 animals/group at that time period. The ED50 and 95% confidence interval are calculated by computer probit analysis.
Test results of supramaximal electroshock for a compound of this invention along with a result for a reference compound are presented in Table 3.

The mark [4] stands for this setting: ip, 30 minutes prior to apomorphine challenge.

Where a name gives a salt, the structure may show the parent alone.

Take `CN1CCC2(CC1)c1c([nH]c3ccccc13)-c1ccccc1N2C` [1',5-Dimethyl-5,6-dihydrospiro[1H-indolo[3,2-c]quinoline-6,4'-piperidine]fumarate, hemiethanolate]: the ED50 – broadly, the dose at which the effect has come halfway, by size or by number of responders – in experiment [1] (Mus musculus, sc) was 10.3 mg/kg; in experiment [2] (setting [4]), 19.8 mg/kg.

For the molecule `CC(=O)N1CCC2(CC1)NC1=CC=CCC1=C1N=c3ccccc3=C12` [1'-Acetyl-5,6-dihydrospiro[1H-indolo[3,2-c]quinoline-6,4'-piperidine]], the PQW in experiment [1] (at 20 mg/kg) is -66%.

`CCN1CCC2(CC1)NC1=CC=CCC1=C1N=c3ccccc3=C12` [1'-Ethyl-5,6-dihydrospiro[1H-indolo[3,2-c]quinoline-6,4'-piperidine]]: the “supramaximal electroshock, normalized percent inhibition relative to vehicle control” value in experiment [3] (at 60 mg/kg, i.p.) is given as -80%.

For `c1ccc(CCN2CCC3(CC2)Nc2ccccc2-c2[nH]c4ccccc4c23)cc1` [1'-Phenethyl-5,6-dihydrospiro[1H-indolo[3,2-c]quinoline-6,4'-piperidine]fumarate], the PQW in experiment [1] (at 5 mg/kg) is recorded as -55%.

`CN1CCC2(CC1)c1c([nH]c3ccccc13)-c1ccc(Cl)cc1N2C` [3-Chloro-5,1'-dimethyl-5,6-dihydrospiro[1H-indolo-[3,2-c]quinoline-6,4'-piperidine]dihydrochloride] registered an ED50 in experiment [2] (setting [4]) of 13.2 mg/kg.

On to `CNC1=Nc2ccc(Cl)cc2C(c2ccccc2)=[N+]([O-])C1` [Chlorodiazepoxide, reference compound], for which, in experiment [3] (ip, reference compound), it took a dose of 8 mg/kg to reach the 50% effect level (ED50).

`CN1CCN(C2=Nc3cc(Cl)ccc3Nc3ccccc32)CC1` [Clozapine, reference compound] registered an ED50 in experiment [2] (sc, reference compounds) of 8.1 mg/kg.

Consider `CC(C)=CCN1CCC2(C)c3cc(O)ccc3CC1C2C` (stereo not drawn) [Pentazocine, reference compound], for which the PQW in experiment [1] (at 1.3 mg/kg, reference compound) is given as -50%.

These data come from patent US5006531A, “5,6-dihydro(1H-indolo(3,2-C)quinoline-6,4'-piperidines) and related compounds which are useful for treating pain, psychosis or convulsions” (Hoechst-Roussel Pharmaceuticals Inc., priority 1989, dated 1991).
